In patent publication US10934274B2, “Quinoline derivatives as TAM RTK inhibitors” (Qurient Co., Ltd., priority 2015, dated 2021):

Assays:
Axl = target: T1, Axl (Homo sapiens, UniProt P30530); assay: LanthaScreen Eu kinase binding assay, Axl; conditions: Tracer 236
T1 construct: purchased Life Technologies
T1 sequence (P30530 26-894): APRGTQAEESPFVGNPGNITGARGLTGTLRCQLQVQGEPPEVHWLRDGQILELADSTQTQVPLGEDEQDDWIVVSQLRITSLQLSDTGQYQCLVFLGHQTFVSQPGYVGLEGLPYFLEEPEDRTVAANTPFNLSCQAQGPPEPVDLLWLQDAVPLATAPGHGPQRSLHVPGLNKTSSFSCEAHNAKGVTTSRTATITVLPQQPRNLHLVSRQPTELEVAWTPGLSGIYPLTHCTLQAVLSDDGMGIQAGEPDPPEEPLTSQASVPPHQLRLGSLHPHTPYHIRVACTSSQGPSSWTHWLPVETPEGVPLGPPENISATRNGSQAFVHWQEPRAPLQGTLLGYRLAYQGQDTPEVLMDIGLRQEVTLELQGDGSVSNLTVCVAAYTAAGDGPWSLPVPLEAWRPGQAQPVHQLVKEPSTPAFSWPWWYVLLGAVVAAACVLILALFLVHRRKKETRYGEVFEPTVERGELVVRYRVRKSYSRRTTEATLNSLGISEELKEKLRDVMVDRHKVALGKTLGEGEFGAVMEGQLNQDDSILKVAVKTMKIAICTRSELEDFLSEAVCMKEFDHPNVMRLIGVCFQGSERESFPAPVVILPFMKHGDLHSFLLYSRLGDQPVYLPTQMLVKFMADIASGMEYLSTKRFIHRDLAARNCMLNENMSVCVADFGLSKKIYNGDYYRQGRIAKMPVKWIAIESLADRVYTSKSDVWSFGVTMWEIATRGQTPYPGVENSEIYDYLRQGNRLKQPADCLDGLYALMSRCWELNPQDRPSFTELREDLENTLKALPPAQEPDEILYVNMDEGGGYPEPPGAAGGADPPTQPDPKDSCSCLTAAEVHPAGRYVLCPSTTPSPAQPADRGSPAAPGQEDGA
Protocol: (§1) LanthaScreen® Eu Kinase Binding assays were conducted at Life Technologies using the manufacturer's specifications for each kinase indicated.
(§2) Briefly, the principle behind this assay is based upon the binding and displacement of an Alexa Fluor 647-labeled tracer to the kinase of interest. Binding of the tracer to the kinase is detected using an EU-labeled anti-tag antibody. Simultaneous binding of both the tracer and antibody to the kinase gives rise to a FRET-signal. Binding of an inhibitor to the kinase competes for binding with the tracer, resulting in a loss of FRET-signal.
(§3) Binding Assay Protocol for AXL, Mer, Tyro3 and Met
(§4) A given compound was diluted in DMSO to make a stock compound solution. The stock compound solution was serially diluted over eight steps in DMSO. Each diluted compound solution in DMSO was diluted in kinase buffer. Afterwards four kinds of working solution were prepared. First, Tracer-Working solution consists of Tracer 236 and Kinase Buffer. Second, Axl, Mer, Tyro3 or Met/anti-GST-AB-Working solution contained one of the kinases Axl, Mer, Tyro3, Met or anti-GST-AB (=anti glutathione-S-transferase antibody) in Kinase Buffer. Third, anti-GST-AB-Working solution was made with anti-GST-AB and Kinase Buffer. Last, in the DMSO-Working solution DMSO was added to Kinase Buffer to a final concentration to 3%. Each of the four kinds of working solutions were separately added to the assay plate and then incubated for 1 h at room temperature. After incubation, the assay plate was measured with respect to the FRET-Signal with the EnVision (Perkin Elmer) using the program LanthaHTRF-Assay. Data evaluation was done in the Quattro Workflow software.
(§5) Table 1 summarises the results obtained for AXL, Mer and Tyro3-kinases binding assays; table 2 summarises the results obtained for the Met kinase binding assay.

Met = target: T2, Met (Homo sapiens, UniProt P08581); assay: LanthaScreen Eu kinase binding assay, Met; conditions: Tracer 236, read-out: cMet kinase binding activity (Kd)
T2 construct: purchased Life Technologies
Protocol: as §1, §2, §3, §4, §5

TYRO3 = target: T3, TYRO3 (Homo sapiens, UniProt Q06418); assay: LanthaScreen Eu kinase binding assay, TYRO3; conditions: Tracer 236
T3 construct: purchased Life Technologies
T3 sequence (Q06418 41-890): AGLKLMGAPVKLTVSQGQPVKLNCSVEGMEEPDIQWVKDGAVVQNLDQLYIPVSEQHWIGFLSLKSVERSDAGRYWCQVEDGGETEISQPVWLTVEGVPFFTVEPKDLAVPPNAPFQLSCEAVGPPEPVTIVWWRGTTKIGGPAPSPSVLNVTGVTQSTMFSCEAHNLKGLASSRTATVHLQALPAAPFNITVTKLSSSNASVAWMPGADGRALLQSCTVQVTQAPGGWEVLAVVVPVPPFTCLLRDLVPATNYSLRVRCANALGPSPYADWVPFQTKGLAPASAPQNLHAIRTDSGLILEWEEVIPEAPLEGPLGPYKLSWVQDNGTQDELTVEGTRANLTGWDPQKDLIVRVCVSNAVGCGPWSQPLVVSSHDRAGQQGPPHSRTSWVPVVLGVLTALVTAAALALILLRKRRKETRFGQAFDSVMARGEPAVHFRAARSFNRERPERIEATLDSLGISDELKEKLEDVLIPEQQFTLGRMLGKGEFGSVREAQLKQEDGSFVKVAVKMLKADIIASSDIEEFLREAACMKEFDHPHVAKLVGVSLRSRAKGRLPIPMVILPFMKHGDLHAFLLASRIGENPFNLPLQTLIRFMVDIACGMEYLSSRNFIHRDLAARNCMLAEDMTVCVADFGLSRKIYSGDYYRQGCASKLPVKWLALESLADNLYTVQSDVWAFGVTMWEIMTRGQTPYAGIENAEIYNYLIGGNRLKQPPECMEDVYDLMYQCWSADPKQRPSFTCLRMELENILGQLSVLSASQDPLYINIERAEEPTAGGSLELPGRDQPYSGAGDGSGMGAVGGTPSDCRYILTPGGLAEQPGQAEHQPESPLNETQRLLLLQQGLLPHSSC
Protocol: as §1, §2, §3, §4, §5

Mer = target: T4, Mer (Homo sapiens, UniProt Q12866); assay: LanthaScreen Eu kinase binding assay, Mer; conditions: Tracer 236
T4 construct: purchased Life Technologies
T4 sequence (Q12866 21-999): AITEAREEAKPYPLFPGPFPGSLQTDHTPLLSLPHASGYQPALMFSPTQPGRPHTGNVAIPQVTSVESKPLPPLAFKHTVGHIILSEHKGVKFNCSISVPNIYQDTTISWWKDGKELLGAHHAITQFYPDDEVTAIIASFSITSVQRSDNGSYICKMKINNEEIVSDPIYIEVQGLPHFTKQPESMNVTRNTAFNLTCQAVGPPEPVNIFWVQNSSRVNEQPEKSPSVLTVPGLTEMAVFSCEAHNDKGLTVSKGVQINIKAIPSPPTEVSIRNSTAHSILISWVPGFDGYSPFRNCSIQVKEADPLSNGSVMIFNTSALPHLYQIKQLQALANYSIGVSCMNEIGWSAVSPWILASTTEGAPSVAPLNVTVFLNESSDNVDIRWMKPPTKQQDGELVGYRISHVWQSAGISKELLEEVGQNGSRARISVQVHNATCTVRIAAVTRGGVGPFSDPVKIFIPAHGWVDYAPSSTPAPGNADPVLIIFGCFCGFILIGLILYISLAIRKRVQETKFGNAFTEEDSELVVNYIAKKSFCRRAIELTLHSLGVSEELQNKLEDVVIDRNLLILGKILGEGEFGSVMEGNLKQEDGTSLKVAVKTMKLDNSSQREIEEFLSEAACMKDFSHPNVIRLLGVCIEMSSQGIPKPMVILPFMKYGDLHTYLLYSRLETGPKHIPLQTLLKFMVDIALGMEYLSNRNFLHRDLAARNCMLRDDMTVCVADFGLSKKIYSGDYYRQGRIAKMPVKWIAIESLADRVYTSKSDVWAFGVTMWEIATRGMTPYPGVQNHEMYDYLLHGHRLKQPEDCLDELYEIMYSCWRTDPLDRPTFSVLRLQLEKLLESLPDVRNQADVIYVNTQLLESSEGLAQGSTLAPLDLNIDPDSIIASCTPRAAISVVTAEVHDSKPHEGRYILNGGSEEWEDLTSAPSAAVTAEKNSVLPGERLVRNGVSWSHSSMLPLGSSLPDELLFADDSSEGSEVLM
Protocol: as §1, §2, §3, §4, §5

T2 sequence (P08581 25-1390): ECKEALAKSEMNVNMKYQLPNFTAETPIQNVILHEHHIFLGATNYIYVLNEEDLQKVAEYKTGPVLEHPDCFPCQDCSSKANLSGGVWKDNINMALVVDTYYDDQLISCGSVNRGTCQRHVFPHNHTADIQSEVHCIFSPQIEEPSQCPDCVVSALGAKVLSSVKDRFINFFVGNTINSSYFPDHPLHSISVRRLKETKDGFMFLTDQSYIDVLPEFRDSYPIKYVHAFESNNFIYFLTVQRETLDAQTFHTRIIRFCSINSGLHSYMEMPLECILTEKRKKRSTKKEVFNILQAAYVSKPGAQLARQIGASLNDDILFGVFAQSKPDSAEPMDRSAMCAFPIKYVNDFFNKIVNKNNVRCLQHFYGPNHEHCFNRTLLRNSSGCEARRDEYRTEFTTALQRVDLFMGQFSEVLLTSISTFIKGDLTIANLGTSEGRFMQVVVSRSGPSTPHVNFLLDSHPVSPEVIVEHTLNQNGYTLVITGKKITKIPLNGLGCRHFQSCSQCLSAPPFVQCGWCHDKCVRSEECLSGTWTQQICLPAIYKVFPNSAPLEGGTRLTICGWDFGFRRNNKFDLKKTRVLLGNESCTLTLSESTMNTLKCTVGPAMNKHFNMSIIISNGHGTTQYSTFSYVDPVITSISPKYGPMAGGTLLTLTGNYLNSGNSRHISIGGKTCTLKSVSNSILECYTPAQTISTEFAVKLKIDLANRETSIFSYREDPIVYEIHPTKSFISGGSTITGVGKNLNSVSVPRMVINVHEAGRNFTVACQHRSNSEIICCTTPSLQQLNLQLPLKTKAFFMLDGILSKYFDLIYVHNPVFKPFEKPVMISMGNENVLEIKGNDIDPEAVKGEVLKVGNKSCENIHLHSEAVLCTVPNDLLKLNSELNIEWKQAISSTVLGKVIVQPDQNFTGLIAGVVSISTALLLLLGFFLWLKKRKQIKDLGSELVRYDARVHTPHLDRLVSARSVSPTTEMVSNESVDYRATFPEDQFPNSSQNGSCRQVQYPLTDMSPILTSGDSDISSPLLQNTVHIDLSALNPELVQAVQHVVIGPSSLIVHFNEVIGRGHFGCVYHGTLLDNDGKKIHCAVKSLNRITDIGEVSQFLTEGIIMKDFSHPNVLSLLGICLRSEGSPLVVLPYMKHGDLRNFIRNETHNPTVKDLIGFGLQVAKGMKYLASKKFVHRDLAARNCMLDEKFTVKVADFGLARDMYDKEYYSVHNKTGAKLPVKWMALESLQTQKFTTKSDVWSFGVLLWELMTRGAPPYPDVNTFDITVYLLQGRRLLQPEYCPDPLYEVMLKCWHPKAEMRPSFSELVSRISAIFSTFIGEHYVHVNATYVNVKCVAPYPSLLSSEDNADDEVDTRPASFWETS

SMILES | Kd (Axl) [nM] | Kd (Met) [nM] | Kd (TYRO3) [nM] | Kd (Mer) [nM]
CCOc1cnn(CCO)c1C(=O)Nc1ccc(Oc2ccnc3cc(OC)c(OC)cc23)cn1 [Compound 72] | ≥ 1000 | 100 to 1000 | ≥ 1000 | 100 to 1000
CCOc1cnn(CCOC(F)F)c1C(=O)Nc1ccc(Oc2ccnc3cc(OC)c(OC)cc23)cn1 [Compound 78] | ≥ 1000 | 100 to 1000 | ≥ 1000 | 100 to 1000
CCOc1cn(-c2cnc(C(=O)O)nc2)nc1C(=O)Nc1ccc(Oc2ccnc3cc(OC)c(OC)cc23)cn1 [Compound 88] | ≥ 1000 | 100 to 1000 | ≥ 1000 | 100 to 1000
CCOc1cnn(CCc2cccnc2)c1C(=O)Nc1ccc(Oc2ccnc3cc(OC)c(OC)cc23)cn1 [Compound 95] | 100 to 1000 | < 100 | 100 to 1000 | < 100
CCOc1cn(-c2ccc(F)cc2C)nc1C(=O)Nc1cnc(Oc2ccnc3cc(OC)c(OC)cc23)cn1 [Compound 98] | ≥ 1000 | ≥ 1000 | ≥ 1000 | ≥ 1000
CCOc1cnn(-c2ccc(Cl)cc2C(F)(F)F)c1C(=O)Nc1ccc(Oc2ccnc3cc(OC)c(OC)cc23)cn1 [Compound 103] | 100 to 1000 | 100 to 1000 | 100 to 1000 | 100 to 1000
CCOc1cn(-c2ccc(F)cc2C)nc1C(=O)Nc1ccc(Oc2ccnc3cc(OC)c(OC)cc23)cc1C(F)(F)F [Compound 109] | 100 to 1000 | 100 to 1000 | ≥ 1000 | ≥ 1000
CCOc1cnn(-c2ccc(C(C)C)cc2)c1C(=O)Nc1ccc(Oc2ccnc3cc(OC)c(OC)cc23)cn1 [Compound 118] | 100 to 1000 | 100 to 1000 | 100 to 1000 | < 100
CCOc1cn(-c2ccc(F)cc2C)nc1C(=O)Nc1ccc(Oc2ccnc3cc(OC)c(OC)cc23)cc1CO [Compound 119] | 100 to 1000 | 100 to 1000 | 100 to 1000 | 100 to 1000
CCOc1cn(-c2ccc(C(C)(C)C)cc2)nc1C(=O)Nc1ccc(Oc2ccnc3cc(OC)c(OC)cc23)cn1 [Compound 121] | 100 to 1000 | 100 to 1000 | ≥ 1000 | < 100
CCOc1cn(-c2ccc(F)cc2C)nc1C(=O)Nc1csc(Oc2ccnc3cc(OC)c(OC)cc23)n1 [Compound 122] | ≥ 1000 | ≥ 1000 | ≥ 1000 | ≥ 1000
CCOc1cnn(-c2ccc(C(C)(C)C)cc2)c1C(=O)Nc1ccc(Oc2ccnc3cc(OC)c(OC)cc23)cn1 [Compound 123] | 100 to 1000 | 100 to 1000 | ≥ 1000 | 100 to 1000
CCOc1cn(-c2c(CN(C)C)ccnc2C)nc1C(=O)Nc1ccc(Oc2ccnc3cc(OC)c(OC)cc23)cn1 [Compound 131] | 100 to 1000 | 100 to 1000 | ≥ 1000 | 100 to 1000
CCOc1cn(-c2ncc(Cl)cc2CN)nc1C(=O)Nc1ccc(Oc2ccnc3cc(OC)c(OC)cc23)cn1 [Compound 134] | 100 to 1000 | < 100 | ≥ 1000 | < 100

Now from value to compound:

Kd (Axl) [nM] | Kd (Met) [nM] | Kd (TYRO3) [nM] | Kd (Mer) [nM] | SMILES
100 to 1000 | 100 to 1000 | 100 to 1000 | < 100 | CCOc1cn(C2CCN(C)C2)nc1C(=O)Nc1ccc(Oc2ccnc3cc(OC)c(OC)cc23)cn1 (stereo not shown) [Compound 74]
100 to 1000 | 100 to 1000 | ≥ 1000 | 100 to 1000 | CCOc1cnn(C2CCN(C)C2)c1C(=O)Nc1ccc(Oc2ccnc3cc(OC)c(OC)cc23)cn1 (stereo not shown) [Compound 75]
100 to 1000 | 100 to 1000 | 100 to 1000 | < 100 | CCOc1cnn(C2CCOC2)c1C(=O)Nc1ccc(Oc2ccnc3cc(OC)c(OC)cc23)cn1 (stereo not shown) [Compound 77]
< 100 | < 100 | 100 to 1000 | < 100 | CCOc1cn(Cc2cccnc2)nc1C(=O)Nc1ccc(Oc2ccnc3cc(OC)c(OC)cc23)cn1 [Compound 83]
100 to 1000 | < 100 | ≥ 1000 | < 100 | CCOc1cnn(Cc2cccnc2)c1C(=O)Nc1ccc(Oc2ccnc3cc(OC)c(OC)cc23)cn1 [Compound 84]
100 to 1000 | ≥ 1000 | 100 to 1000 | 100 to 1000 | CCOc1cn(-c2ccc(F)cc2C)nc1C(=O)Nc1ccc(Oc2ccnc3cc(OC)c(OC)cc23)c(NC(C)C)c1 [Compound 91]
< 100 | < 100 | < 100 | < 100 | CCOc1cn(-c2cnc(N)cn2)nc1C(=O)Nc1ccc(Oc2ccnc3cc(OC)c(OC)cc23)cn1 [Compound 136]
< 100 | < 100 | 100 to 1000 | < 100 | CCOc1cn(-c2cnc(N)cc2C)nc1C(=O)Nc1ccc(Oc2ccnc3cc(OC)c(OC)cc23)cn1 [Compound 137]
